We go through 2 molecules from US20250186398A1, “CONTINUOUS DOSING REGIMEN FOR TREATMENT OF A CONDITION OF THE EYE” (EYEPOINT PHARMACEUTICALS, INC., priority 2022, published 2025).

Series [1] in a line: Intravitreal Pharmacokinetic Study of vorolanib insert (Example 5A). The series is classed as in vivo, Male Dutch Belted Rabbits. The method, then: An Intravitreal Pharmacokinetic Study was performed in Male Dutch Belted Rabbits. The objective of this study was to characterize the plasma and ocular tissue pharmacokinetics of a vorolanib insert following bilateral intravitreal injection on Day 1. Animals were evaluated up to 24 months following placement of the intravitreal insert.
The low dose group (1) received 3 inserts per eye for a total dose of 630 μg per eye. The high dose group (2) animals received 6 inserts per eye given in 2 separate injections (3 inserts per injection) for a total dose of 1,260 μg per eye.
Prior to each scheduled sacrifice point, one whole blood sample was collected from a targeted 2 animals per group via puncture of a marginal ear vein. Samples were tested for levels of vorolanib and its metabolite. Two animals per group were euthanized on day 1 at 6, 12, 24 and 48 hours, on days 7 and 14, and at 1, 2, 4, 6, 8, 16 and 24 months.

Series [2] can be described thus: Intravitreal Pharmacokinetic Study of vorolanib insert, 12 months (Example 5B). It is filed as in vivo, Dutch Belted Rabbits. The method, then:
Another Intravitreal Pharmacokinetic Study was performed in Dutch Belted Rabbits. The objective of this study was to evaluate the plasma and ocular pharmacokinetics of a vorolanib insert following bilateral intravitreal injection in rabbit eyes. Animals were evaluated up to 12 months following placement of the intravitreal insert.
Dutch Belted rabbits were administered vorolanib inserts in each eye by intravitreal injection. Group 1 eyes received 1 insert containing 643 μg of vorolanib, and Group 2 eyes received 2 inserts containing 900 μg total. Blood samples were collected at 2, 7, 14, and 28 days and then once monthly for months 2-12. Inserts were recovered at 2, 7, and 14 days and then at 1, 2, 4, 6, 8, 10, and 12 months. Residual vorolanib levels were determined in all explants using high-performance liquid chromatography. The vorolanib release rate was estimated based on residual levels in the explants. Plasma and ocular tissues were separated and analyzed for vorolanib and its metabolite using liquid chromatography-mass spectrometry.

Series [3] can be described thus: 18 month intravitreal toxicity and plasma pharmacokinetics study (Example 6). It is filed as in vivo. As to the method:
An 18 month intravitreal toxicity study for the insert was also performed in 80 Dutch Belted rabbits (40 male and 40 female). Animals were evaluated for a period of 6 and 18 months following placement of intravitreal inserts. The objective was to characterize the ocular toxicity, plasma pharmacokinetics and biodegradation of a vorolanib insert following bilateral intravitreal injection.
The tables below describe the group assignments and dose levels. For the toxicology groups, animals were sacrificed at 6 months and 18 months. For the plasma pharmacokinetic analysis, blood samples were collected at Days 1, 3, and 7 and then 1, 2, 3, 4, 5, 6, 12, 14, 16 and 18 Months.
The placebo group (1) animals received two placebo inserts by injection in each eye. The low dose group (2) animals received 2 inserts in each eye. The mid dose group (3) animals received 3 inserts in each eye given in 2 separate injections. The high dose group (4) animals received 4 inserts in each eye given in 2 separate injections (2 inserts/injection). The highest dose group (5) animals received 6 inserts in each eye given in 2 separate injections (3 inserts/injection).
At each scheduled timepoint, whole blood was collected via puncture of a marginal ear vein. Samples were analyzed for clinical pathology and plasma pharmacokinetics. Animals were euthanized according to the schedules described above. A complete gross necropsy was performed on all animals that were sacrificed or found dead during the study. Organs were weighed and tissues collected. Ocular tissues were collected for histopathology only.

The test system of series [4] is Laser-Induced Choroidal Neovascularization (CNV). The series is described as follows: Swine (Mini-pig) Model of Laser-Induced Choroidal Neovascularization, fluorescein angiography (Example 7). The series is classed as in vivo. As to the method:
Safety and efficacy of a vorolanib insert were evaluated in a Swine (Mini-pig) Model of Laser-Induced Choroidal Neovascularization (CNV). The primary objective of this study was to evaluate the long-term safety and inhibition of vascular permeability and neovascularization in a laser-induced model of choroidal neovascularization (CNV) using a vorolanib insert in swine.
On the day of lasering (Groups 1-4) animals were treated with an 810 nm diode laser delivered through an indirect ophthalmoscope. Approximately 6 single laser spots were placed between retinal veins. Both eyes underwent laser treatment according to the schedule in the table above.
On the day of intravitreal injections animals were anesthetized and the eyes were aseptically prepared. […] Animals were allowed to recover normally from the procedure. The pigs were given a topical drop of antibiotic ophthalmic solution 4-6 hours later, and then BID for 2 additional days with at least 6 hours between doses. Animals were dosed on either Day 0 immediately following laser CNV induction or 7 days prior to laser CNV induction according to the schedule in the table above.
Flourescein Angiography was done in both eyes in anesthetized animals at the timepoints as indicated in the experimental design table.

As for `Cc1[nH]c(/C=C2\C(=O)Nc3ccc(F)cc32)c(C)c1C(=O)N[C@H]1CCN(C(=O)N(C)C)C1` [vorolanib, (S,Z)—N-(1-(Dimethylcarbamoyl)pyrrolidin-3-yl)-5-((5-fluoro-2-oxoindolin-3-ylidene)methyl)-2,4-dimethyl-1H-pyrrole-3-carboxamide], in series [1] (630 vs 1,260 μg per eye), the “dose proportionality of maximum observed concentrations in vitreous and retina/choroid” value is “nearly dose proportional”. Also, the vorolanib plasma levels entry in series [1] (PK study, intravitreal inserts) is listed as “low pg/mL range”; in series [3] (intravitreal inserts), “low pg/mL range”. Besides, the “change in plasma levels” value in series [1] (after 99 days) is given as “No apparent change”. Moreover, in series [2] (between months 8 and 10), the “drop in mean vorolanib concentration in ocular tissues and plasma” value is listed as 85%-99%. Further, the “vorolanib exposure rank order” value in series [2] (ocular tissues and plasma) is recorded as “choroid=retina=vitreous>aqueous humor>plasma”. In series [2] (through 8 months), the “concentrations in target ocular tissues (choroid and retina) relative to IC50 for VEGFR2” value is “above the IC50 for VEGFR2”. Moreover, the “vorolanib levels in the vitreous and the retina/choroid relative to IC50 for VEGFR” value in series [3] (at the time points tested) is given as “significantly above the IC50 for VEGFR”. In addition, in series [3] (up to 6 inserts per eye), the “adverse findings attributed to vorolanib” value is given as “No adverse findings”.

As for “aflibercept: VEGF inhibitor (Regeneron), intravitreal standard of care, comparator in swine CNV model”, the “efficacy in this model” value in series [4] (2 mg IVT) is on record as “normal amounts of efficacy”. Besides, in series [4] (Group 1, 2 mg, 50 μL/eye IVT, Day 0), the “reduction in Corrected Total Lesion Fluorescence (CTLF) from Day 7 to Day 28, rank among Groups 1-4” value was “largest reduction”.
